Entries after “also recorded” stand apart in the source; their conditions may differ.
Biological target: T1, MmBCO2 (Mus musculus, UniProt Q99NF1)
T1 construct: All genes were full length except AtCCD7; expressed in transfected cells; host or cells: E. coli BL21(DE3) harbouring pAC-BETA
T1 sequence (Q99NF1 1-532): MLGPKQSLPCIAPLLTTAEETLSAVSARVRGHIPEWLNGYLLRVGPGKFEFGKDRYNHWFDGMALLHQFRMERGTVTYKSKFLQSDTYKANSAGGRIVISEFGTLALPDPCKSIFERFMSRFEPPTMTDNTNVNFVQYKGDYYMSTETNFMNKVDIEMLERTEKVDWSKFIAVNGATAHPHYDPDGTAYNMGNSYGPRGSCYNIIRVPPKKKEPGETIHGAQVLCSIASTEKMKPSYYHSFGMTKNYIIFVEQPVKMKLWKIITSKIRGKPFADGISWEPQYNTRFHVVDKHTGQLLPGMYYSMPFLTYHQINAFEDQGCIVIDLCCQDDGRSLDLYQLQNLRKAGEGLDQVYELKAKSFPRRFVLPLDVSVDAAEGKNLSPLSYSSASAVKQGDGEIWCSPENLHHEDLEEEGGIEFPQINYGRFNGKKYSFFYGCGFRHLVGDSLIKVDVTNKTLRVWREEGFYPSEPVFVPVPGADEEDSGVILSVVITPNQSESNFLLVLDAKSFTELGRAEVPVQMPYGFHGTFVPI
Experiment: In vivo enzyme assay in β-carotene-producing E. coli expressing MmBCO2
Assay type: cell-based
Settings: 100 μM inhibitor, 16 hours; FIG. 4
From the text: In vivo enzyme assays in E. coli—The genes of interest (supplemental Table S1) were cloned into the vector pET30c (Novagen) fused directly to the initial ATG codon with no tag, or into pGEX-4T such that the gene was fused to an N-terminal GST tag. All genes were full length except AtCCD7, which had the chloroplast signal sequence removed (supplemental methods). […] Therefore, this construct was used in subsequent assays. The plasmids were transferred to the E. coli expression strain BL21(DE3), harbouring pAC-BETA (38), and therefore producing β-carotene.
For each inhibitor assay, 2.5 ml LB media with the appropriate antibiotics (25 μg ml^−1 chloramphenicol and 50 μg ml^−1 kanamycin or 100 μg ml^−1 ampicillin) and 2.5 μM IPTG, was prepared. […] The supernatant was removed and the O.D.453-O.D.550 was measured. The amount of β-carotene was calculated using a standard curve generated from a dilution series of β-carotene (Sigma) in ethanol with 0.2% Triton X-100; the absolute levels of β-carotene are shown in FIG. 8. The relative inhibition was calculated by the equation: (Ci−Cc)/(C1−Cc)×100, where Ci is the carotenoid level with inhibitor and CCD present, Cc is the level with CCD but without the inhibitor and C1 is the level in a strain where lacZ is expressed instead of the CCD, and no inhibitor is present. […]

## COc1ccc(C(=O)N(O)Cc2ccccc2)cc1 [Compound F1, N-benzyl-4-methoxybenzoyl hydroxamic acid]
  relative inhibition of MmBCO2 in E. coli (in words): most effective compounds at inhibiting MmBCO2; also recorded: high inhibitory activity

## COc1ccc(C(=O)N(O)Cc2ccc(F)cc2)cc1 [Compound F2, N-(4-fluorobenzyl)-4-methoxybenzoyl hydroxamic acid]
  relative inhibition of MmBCO2 in E. coli (in words): most effective compounds at inhibiting MmBCO2; also recorded: high inhibitory activity

Source: patent US9210928B2, “Plant development control composition” (Syngenta Crop Protection, LLC, priority 2008, dated 2015)
